Laboratory results reported in US11666555B2, “RelA inhibitors for biofilm disruption” (DREXEL UNIVERSITY, priority 2017, dated 2023).

Assays:
Assay type in all cases: cell-based, Escherichia coli
E. coli C = assay: Bacterial growth curves in liquid culture (OD630); details: for effect on bacterial growth (growth curves): liquid culture, 30, 20, 10 and 5 μg/mL, OD630, 18 h, FIG. 2
Procedure: The bacterial strain of Escherichia coli strain C was used as the model organism for initial screening. A Luria-Bertani (LB-Miller) medium was used as the full medium. Once the biofilms were grown, compounds S3-[…] and S3-G1B were tested for their ability to degrade and inhibit biofilm growth. […] This is likely due to the fact that the stringent response and RelA are not active when the cells are initially grown. Bacterial Growth-The effect of different compounds on bacterial growth was tested by adding compounds at specific concentrations to the bacterial culture (100× diluted overnight culture approx. 10^9 cells) in fresh LB medium. Two hundred microliters were aliquoted into a 96 well plate and placed into Biotek HT plate reader for 18 h at 37° C. Plates were shaken and the optical density (OD630) was measured every 15 min. Antibiotic Susceptibility Test-The antibiotic susceptibility was tested. For the liquid cultures, the minimum inhibitory concentrations (MICs) of the antimicrobial drugs were determined using 96 well plates and the broth dilution method. Suspensions were then incubated at 37° C. for 18 hours in the Biotek HT plate reader (see bacterial growth). For biofilm, the Biofilm Destruction Test discussed below was used with different antibiotic concentrations and the cell density was measured after 18 h. Bacterial concentration was calculated through optical density (OD630), and the lowest concentration causing 80% growth inhibition relative to the growth of the control was deemed to be the MIC. In order to test the effect of compounds on bacterial growth, liquid culture experiments were performed. The S3-[…] compound (hereinafter “compound A”) and S3-G1B compound (hereinafter “compound B”) were applied to the bacterial cultures at the concentrations of 30, 20, 10 and 5 μg/mL. The differences in bacterial growth curves in liquid cultures fortified with the test compounds were measured. The Escherichia coli strain C is sensitive to all types of antibiotics. To test the MIC of ampicillin, a standard growth curve experiment was run with different concentrations of antibiotics. […] Inoculum at 1000× dilution of overnight culture.

[1] = system: E. coli C biofilm formation; assay: Biofilm Inhibition Test (crystal violet, OD570/OD600); details: for effect on biofilm formation (crystal violet): 20 μg/mL
Procedure: Biofilm Inhibition Test—The biofilm inhibition was analyzed. For biofilm formation on a polystyrene surface, flat-bottom 96-well microtiter plates (Corning Inc.) were used. The effect of different compounds on biofilm formation was tested by adding compounds at specific concentrations to the bacterial culture (100× diluted overnight culture approx. 10^9 cells) in fresh LB medium. Two hundred microliters were aliquoted into 96 well plate and placed for 24 or 48 h into 37° C. incubator. Cell density was measured (OD600) using a Multiscan Go plate reader (ThermoFisher), and 30 μL of Gram crystal violet (Remel-3 g CV, 50 mL isopropanol, 50 mL ethanol and 900 mL of purified water) was applied for staining for 1 h. Plates were washed with water and air dried, and crystal violet was solubilized with an ethanol-acetone (4:1) solution. The OD570 was determined from this solution, and the biofilm amount was calculated as the ratio of OD570 to OD600. In order to check the effect of small molecules on biofilm formation, a biofilm inhibition experiment was designed. Compounds A and B were tested at concentration 20 μg/mL. The Innate defense regulator peptide-1018 (IDR-1018) (10 μg/mL) and serine hydroxamate (1 μg/mL) were also included.

E. Coli biofilms = assay: Synergistic effect of compounds combined with ampicillin on biofilm; details: in conjunction with ampicillin, FIG. 8
Procedure: The synergistic effect of compounds combined with antibiotics was tested. Biofilms were grown for 24, 48 or 72 h as described above. After that time planktonic cells were removed, and biofilms were washed twice with 250 μL of sterile phosphate buffered saline (PBS) solution. Two hundred microliters of fresh LB medium with specific concentration of the tested compounds and Ampicillin were dispensed into wells. After 18 h incubation at 37° C., the amount of biofilm was measured by CV staining as described above. For alamarBlue viability test, 4 μL of alamarBlue (Invitrogen) was added and plates were incubated in the Biotek HT plate reader at 37° C. for 4 h. Cell viability was measured as fluorescence at 530/590 nm (excitation/emission) versus compound concentration or initial cell density.
FIG. 8 highlights some of the data collected. […] As a positive control in these experiments IDR-1018 was utilized. IDR-1018 is a non-druggable antibiofilm peptide. IDR 1018 is a known biofilm disruptor that directly acts and degrades (p)ppGpp in cells (de la Fuente-Núñez 2014).

E. coli C biofilm = assay: Biofilm Destruction Test (biofilm persistence, crystal violet); details: for effect on biofilm persistence / survival: two days biofilms, FIG. 6; for increase in biofilm persistence: 2 days old biofilm, 18 h, FIG. 7
Procedure: Biofilm Destruction Test—The biofilm destruction was determined. Biofilms were grown for 24 or 48 h as described above. After that time planktonic cells were removed, and biofilms were washed twice with 250 μL of sterile phosphate buffered saline (PBS) solution. Two hundred microliters of fresh LB medium with specific concentration of the tested compounds were dispensed into wells. After 18 h incubation at 37° C., the amount of biofilm was measured by CV staining as described above.
The effect of small molecules on biofilm persistence was tested. Two days biofilms were treated with compounds A and B as well as IDR-1018 and serine hydroxamate.
As described above, antibiotics affect bacterial cell survival in biofilms. Thus, the effect of antibiotic on biofilm persistence was tested. Ampicillin was applied on 2 days old biofilm and the amount of biofilm was analyzed after 18 h.

[2] = system: E. coli C cells in biofilm; assay: Antibiotic susceptibility of cells in biofilm (cell density after 18 h treatment); details: 18 h treatment of 2-day biofilm
Procedure: Antibiotic Susceptibility Test—The antibiotic susceptibility was tested. For the liquid cultures, the minimum inhibitory concentrations (MICs) of the antimicrobial drugs were determined using 96 well plates and the broth dilution method. Suspensions were then incubated at 37° C. for 18 hours in the Biotek HT plate reader (see bacterial growth). For biofilm, the Biofilm Destruction Test discussed below was used with different antibiotic concentrations and the cell density was measured after 18 h. Bacterial concentration was calculated through optical density (OD630), and the lowest concentration causing 80% growth inhibition relative to the growth of the control was deemed to be the MIC. Biofilm Destruction Test—The biofilm destruction was determined. Biofilms were grown for 24 or 48 h as described above. After that time planktonic cells were removed, and biofilms were washed twice with 250 μL of sterile phosphate buffered saline (PBS) solution. Two hundred microliters of fresh LB medium with specific concentration of the tested compounds were dispensed into wells. After 18 h incubation at 37° C., the amount of biofilm was measured by CV staining as described above. As cells in the biofilm tend to be more resistant to antibiotics, similar ampicillin concentration was tested to check the effect of 18 h antibiotic treatment on 2-day biofilm growth. […] At 40 μg/mL, a decrease in cell growth was observed of 15%. Starting from 50 μg/mL the cell density was reduced from 53% to 5% (at 90 μg/mL) of the untreated control.

Molecule | effect on bacterial growth (growth curves) (E. coli C) | effect on the initial growth of biofilms [1] | effect on biofilm formation (crystal violet) ([1]; FIG. 5B) | biofilm concentration compared to biofilms treated with just antibiotics (E. Coli biofilms) | biofilm degradation compared with positive control IDR-1018 (E. Coli biofilms) | effect on biofilm persistence / survival (E. coli C biofilm) | further results
O=C(N[C@H](C(=O)O)c1ccc(Cl)cc1)c1cc(-c2ccc(O)cc2)n[nH]1 [Compound S3-G1A, (4-chlorophenyl)([(3-(4-hydroxyphenyl)-1H-pyrazol-5-yl]carbonyl)amino)acetic acid] | Neither compound showed any effect | did not show any effect | slight increase | decreasing the biofilm concentration significantly | outperform IDR-1018 | no significant effect | effect on bacterial growth (growth curves) (E. coli C; listed as A): no effect
CCCNc1ncc(-c2cc(-c3cc(C(=O)O)[nH]n3)nc(N)c2C#N)cn1 [Compound S3-G1B] | Neither compound showed any effect | did not show any effect | slight increase | decreasing the biofilm concentration significantly | outperform IDR-1018 | no significant effect | effect on bacterial growth (growth curves) (E. coli C; listed as B): no effect
NC(CO)C(=O)NO (stereo not drawn) [Serine hydroxamate, serine hydroxamate, reference compound] | – | – | – | – | – | – | effect in biofilm inhibition experiment ([1]; 1 μg/mL, 24 h experiment): did not show any effect
CC1(C)S[C@@H]2[C@H](NC(=O)[C@H](N)c3ccccc3)C(=O)N2[C@H]1C(=O)O [ampicillin] | – | – | – | – | – | – | effect on planktonic growth curve (E. coli C; low ampicillin concentrations, FIG. 3): bacteriostatic effect with a prolonged lag phase; increase in biofilm persistence (E. coli C biofilm; Amp 10 (10 μg/mL)): 1.7 fold; increase in biofilm persistence (E. coli C biofilm; Amp 70 (70 μg/mL)): 5.9 fold; decrease in cell growth ([2]; 40 μg/mL): 15%; cell density, % of the untreated control ([2]; 50 μg/mL): 53%; cell density, % of the untreated control ([2]; 90 μg/mL): 5%
IDR-1018 [reference compound] | – | – | – | – | – | smaller effect on biofilm destruction than on biofilm inhibition | planktonic growth lower than the untreated control ([1]; 10 μg/mL, FIG. 5A): 63%; biofilm lower than the untreated control ([1]; 10 μg/mL, FIG. 5B): 45%
